“Also recorded” adds a separate entry of the source.
Assays:
[1] = test system: isomerase activity of CypA; conditions: ref Ni et al., 2009; cited from earlier work
[2] = test system: clinically isolated influenza A and B viruses; format: cell-based
[3] = test system: A/WSN/33 (H1N1); format: cell-based
[4] = test system: A/California/07/2009 (H1N1); format: cell-based
[5] = test system: B/Wisconsin/1/2010 (Yamagata); format: cell-based
[6] = test system: A/Udorn/72 (H3N2); format: cell-based
[7] = test system: A/Denmark/524/2009 (H1N1); format: cell-based
[8] = test system: A/Texas/04/2009 (H1N1); format: cell-based
[9] = test system: A/Switzerland/9715293/2013 (H3N2); format: cell-based
[10] = test system: A/Denmark/528/2009 (H1N1); format: cell-based
[11] = test system: A/WSN/33 (H1N1); format: cell-based, Influenza A virus
[12] = test system: B/Phuket/3073/2013 (Yamagata); format: cell-based
[13] = test system: B/Brisbane/60/2008 (Victoria); format: cell-based
[14] = molecular target: A/WSN/33 (H1N1) viral polymerase activity (Influenza A virus, UniProt P15682); format: cell-based, influenza A/WSN/33 virus
Chain of A/WSN/33 (H1N1) viral polymerase activity (P15682 whole entry, looked up): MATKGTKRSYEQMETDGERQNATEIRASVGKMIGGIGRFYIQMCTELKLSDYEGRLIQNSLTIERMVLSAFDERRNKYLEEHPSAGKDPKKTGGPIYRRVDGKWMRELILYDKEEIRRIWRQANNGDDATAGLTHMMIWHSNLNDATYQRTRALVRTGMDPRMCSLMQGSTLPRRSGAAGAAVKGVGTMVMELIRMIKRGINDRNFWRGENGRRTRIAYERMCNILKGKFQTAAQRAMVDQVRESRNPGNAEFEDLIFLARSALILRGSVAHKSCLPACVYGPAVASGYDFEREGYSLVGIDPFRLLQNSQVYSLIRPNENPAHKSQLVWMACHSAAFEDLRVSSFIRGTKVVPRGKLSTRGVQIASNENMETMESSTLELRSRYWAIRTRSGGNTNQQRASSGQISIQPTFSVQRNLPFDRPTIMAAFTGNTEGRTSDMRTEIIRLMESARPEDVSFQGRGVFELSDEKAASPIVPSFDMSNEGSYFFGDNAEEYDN

Compound: O=C(NC(=O)c1c(F)cccc1Cl)NC1c2ccccc2-c2ccccc21 [TMN355 (2)]
- potency in inhibiting the isomerase activity of CypA relative to CsA (1) [1]: 27 times
- effect on replication of several influenza A and B strains [2]: had no effect on the replication

Compound: Cyclosporine C [CsC (3)]
- antiviral efficacy against A/WSN/33 (H1N1) compared with CsA (1) [3]: less active; also recorded: slightly less effective than CsA (1)

Compound: CCC(CC)O[C@@H]1C=C(C(=O)O)C[C@H](N)[C@H]1NC(C)=O [Oseltamivir carboxylate, oseltamivir carboxylate]
- Sensitivity of influenza strain to drug [4]: S
- Sensitivity of influenza strain to drug [5]: S
- Sensitivity of influenza strain to drug [6]: S
- Sensitivity of influenza strain to drug [7]: S
- Sensitivity of influenza strain to drug [8]: R (H275Y)
- Sensitivity of influenza strain to drug [9]: S
- Sensitivity of influenza strain to drug [3]: S
- Sensitivity of influenza strain to drug [10]: R (H275Y)
- antiviral effect by time of addition [11]: potent antiviral effect even when added 8 hours post initial viral infection
- Sensitivity of influenza strain to drug [12]: S
- Sensitivity of influenza strain to drug [13]: S

Compound: NC12CC3CC(CC(C3)C1)C2 [Amantadine, amantadine]
- Sensitivity of influenza strain to drug [4]: R (S31N)
- Sensitivity of influenza strain to drug [5]: R
- Sensitivity of influenza strain to drug [6]: S
- Sensitivity of influenza strain to drug [7]: R(S31N)
- Sensitivity of influenza strain to drug [8]: R (S31N)
- Sensitivity of influenza strain to drug [9]: R (S31N)
- Sensitivity of influenza strain to drug [3]: R (S31N)
- Sensitivity of influenza strain to drug [10]: R (S31N)
- Sensitivity of influenza strain to drug [12]: R
- Sensitivity of influenza strain to drug [13]: R

Compound: Cc1onc(-c2ccccc2)c1C(=O)N1CCN(c2ccc([N+](=O)[O-])cc2Cl)CC1 [nucleozin (21), nucleozin]
- viral polymerase activity (normalized luciferase ratio) [14]: completely inhibited the viral polymerase activity

— PMC5026937 (Antiviral research, 2016)
